# Assay results reported in the Kinase Knowledgebase extract (Sharma et al. 2016).
# Molecular target: EGFR (UniProt P00533)
# Sequence (P00533 whole entry, looked up): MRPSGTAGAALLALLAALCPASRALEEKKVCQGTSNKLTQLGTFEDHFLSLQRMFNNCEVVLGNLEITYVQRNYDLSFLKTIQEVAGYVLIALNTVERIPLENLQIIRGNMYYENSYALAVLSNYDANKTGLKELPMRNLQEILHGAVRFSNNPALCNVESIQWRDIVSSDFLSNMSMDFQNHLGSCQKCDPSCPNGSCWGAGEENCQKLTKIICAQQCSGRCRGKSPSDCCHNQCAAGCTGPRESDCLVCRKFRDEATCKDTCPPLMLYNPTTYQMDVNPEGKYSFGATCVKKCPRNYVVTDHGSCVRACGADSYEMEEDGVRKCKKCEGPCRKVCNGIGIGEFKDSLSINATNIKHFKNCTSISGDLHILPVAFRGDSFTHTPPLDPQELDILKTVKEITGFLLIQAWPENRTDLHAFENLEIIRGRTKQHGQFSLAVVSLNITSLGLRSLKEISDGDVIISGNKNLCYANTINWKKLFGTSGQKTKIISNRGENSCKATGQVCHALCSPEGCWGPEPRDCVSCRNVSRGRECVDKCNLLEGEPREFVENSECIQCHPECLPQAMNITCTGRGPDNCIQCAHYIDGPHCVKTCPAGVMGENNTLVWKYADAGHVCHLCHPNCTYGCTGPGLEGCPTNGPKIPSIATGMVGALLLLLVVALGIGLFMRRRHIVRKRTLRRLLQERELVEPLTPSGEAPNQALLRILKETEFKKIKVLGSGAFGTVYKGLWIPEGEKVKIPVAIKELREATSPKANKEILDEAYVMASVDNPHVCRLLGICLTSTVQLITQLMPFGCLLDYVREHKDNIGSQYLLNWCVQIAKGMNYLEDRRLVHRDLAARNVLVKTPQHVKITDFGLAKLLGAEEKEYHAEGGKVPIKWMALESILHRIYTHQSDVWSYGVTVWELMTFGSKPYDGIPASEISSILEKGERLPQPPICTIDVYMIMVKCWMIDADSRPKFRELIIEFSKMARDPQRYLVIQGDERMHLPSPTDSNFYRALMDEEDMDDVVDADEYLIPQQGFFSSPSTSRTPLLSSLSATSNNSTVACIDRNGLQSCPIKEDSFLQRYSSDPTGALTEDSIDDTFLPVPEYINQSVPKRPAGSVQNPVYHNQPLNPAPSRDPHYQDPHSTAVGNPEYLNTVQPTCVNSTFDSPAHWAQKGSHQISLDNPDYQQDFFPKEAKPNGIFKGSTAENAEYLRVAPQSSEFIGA
row,IC50 [nM],Structure (SMILES)
1,3600,COc1ccc(Nc2cc(Nc3cccc(C(F)(F)F)c3)ncn2)cc1NC(=O)C1CCCCC1
2,7,Cc1ccccc1Nc1cc(Nc2cccc(NC(=O)C3CC3)c2)ncn1
3,120,COc1ccc(Nc2cc(Nc3cccc(C(F)(F)F)c3)ncn2)cc1NC(=O)C1CC1
4,> 10000,COc1ccc(OC)c(-c2cc(Nc3cccc(NC(=O)C4CC4)c3)ncn2)c1
5,> 10000,O=C(Nc1cccc(Nc2ccnc(Nc3cccc(C(F)(F)F)c3)n2)c1)C1CC1
6,21,O=C(Nc1cccc(Nc2cc(Nc3cccc(C(F)(F)F)c3)ncn2)c1)C1CC1
7,35,O=C(Nc1cccc(Nc2cc(Nc3ccccc3Cl)ncn2)c1)C1CC1
8,> 10000,CN(c1cccc(NC(=O)C2CC2)c1)c1cc(Nc2cccc(C(F)(F)F)c2)ncn1
9,> 10000,O=C(Nc1cccc(Nc2nccc(Nc3cccc(C(F)(F)F)c3)n2)c1)C1CC1
10,1760,O=C(Nc1cccc(Nc2cc(NCc3ccc(C(F)(F)F)cc3)ncn2)c1)C1CC1
11,> 10000,FC(F)(F)c1cccc(Nc2ccnc(Nc3cccc(C(F)(F)F)c3)c2)c1
12,32,FC(F)(F)c1cccc(Nc2cc(Nc3cccc(C(F)(F)F)c3)ncn2)c1
13,14,O=C(Nc1cccc(Nc2cc(Oc3cccc(C(F)(F)F)c3)ncn2)c1)C1CC1
14,> 10000,COc1ccc(Cl)cc1-c1cc(Nc2cccc(NC(=O)C3CC3)c2)ncn1
15,19,CN(c1cccc(C(F)(F)F)c1)c1cc(Nc2cccc(NC(=O)C3CC3)c2)ncn1
16,> 10000,FC(F)(F)c1cccc(Oc2cc(Oc3cccc(C(F)(F)F)c3)ncn2)c1

# Molecular target: EGFR, P00533 [L858R]
# Sequence (P00533 whole entry L858R, looked up): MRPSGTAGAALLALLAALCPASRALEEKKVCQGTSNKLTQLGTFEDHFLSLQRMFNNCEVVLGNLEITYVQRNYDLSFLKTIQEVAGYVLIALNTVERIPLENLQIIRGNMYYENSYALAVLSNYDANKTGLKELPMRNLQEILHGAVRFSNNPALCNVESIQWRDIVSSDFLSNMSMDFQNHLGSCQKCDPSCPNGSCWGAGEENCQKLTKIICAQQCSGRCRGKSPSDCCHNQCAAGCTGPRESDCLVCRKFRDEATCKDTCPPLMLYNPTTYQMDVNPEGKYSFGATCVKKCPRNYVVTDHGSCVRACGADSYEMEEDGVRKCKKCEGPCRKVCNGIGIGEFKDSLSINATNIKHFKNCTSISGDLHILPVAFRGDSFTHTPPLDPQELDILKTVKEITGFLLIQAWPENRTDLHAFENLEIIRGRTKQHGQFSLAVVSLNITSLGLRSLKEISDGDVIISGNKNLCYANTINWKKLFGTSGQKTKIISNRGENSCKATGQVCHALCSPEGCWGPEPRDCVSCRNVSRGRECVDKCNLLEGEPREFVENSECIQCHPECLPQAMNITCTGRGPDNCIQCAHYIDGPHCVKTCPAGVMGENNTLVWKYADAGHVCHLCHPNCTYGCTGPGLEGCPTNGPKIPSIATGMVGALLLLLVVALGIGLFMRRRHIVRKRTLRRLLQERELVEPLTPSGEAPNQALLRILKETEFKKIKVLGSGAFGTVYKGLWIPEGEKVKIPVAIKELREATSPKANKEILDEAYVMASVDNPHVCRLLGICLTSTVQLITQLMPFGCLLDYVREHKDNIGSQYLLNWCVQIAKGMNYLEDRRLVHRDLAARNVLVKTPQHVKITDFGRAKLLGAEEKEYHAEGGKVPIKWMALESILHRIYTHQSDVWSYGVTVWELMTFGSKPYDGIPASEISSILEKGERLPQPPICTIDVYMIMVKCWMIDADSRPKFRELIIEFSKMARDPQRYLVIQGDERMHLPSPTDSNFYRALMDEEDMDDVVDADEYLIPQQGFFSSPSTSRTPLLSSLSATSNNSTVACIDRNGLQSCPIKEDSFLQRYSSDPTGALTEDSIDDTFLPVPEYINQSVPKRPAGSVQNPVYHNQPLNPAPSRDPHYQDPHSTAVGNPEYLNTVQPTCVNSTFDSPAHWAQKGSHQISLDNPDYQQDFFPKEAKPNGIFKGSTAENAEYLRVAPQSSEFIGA
row,IC50 [nM],Structure (SMILES)
1,63,O=C(Nc1cccc(Nc2cc(Nc3cccc(C(F)(F)F)c3)ncn2)c1)C1CC1

# Molecular target: EGFR, P00533 [L861Q]
# Sequence (P00533 whole entry L861Q, looked up): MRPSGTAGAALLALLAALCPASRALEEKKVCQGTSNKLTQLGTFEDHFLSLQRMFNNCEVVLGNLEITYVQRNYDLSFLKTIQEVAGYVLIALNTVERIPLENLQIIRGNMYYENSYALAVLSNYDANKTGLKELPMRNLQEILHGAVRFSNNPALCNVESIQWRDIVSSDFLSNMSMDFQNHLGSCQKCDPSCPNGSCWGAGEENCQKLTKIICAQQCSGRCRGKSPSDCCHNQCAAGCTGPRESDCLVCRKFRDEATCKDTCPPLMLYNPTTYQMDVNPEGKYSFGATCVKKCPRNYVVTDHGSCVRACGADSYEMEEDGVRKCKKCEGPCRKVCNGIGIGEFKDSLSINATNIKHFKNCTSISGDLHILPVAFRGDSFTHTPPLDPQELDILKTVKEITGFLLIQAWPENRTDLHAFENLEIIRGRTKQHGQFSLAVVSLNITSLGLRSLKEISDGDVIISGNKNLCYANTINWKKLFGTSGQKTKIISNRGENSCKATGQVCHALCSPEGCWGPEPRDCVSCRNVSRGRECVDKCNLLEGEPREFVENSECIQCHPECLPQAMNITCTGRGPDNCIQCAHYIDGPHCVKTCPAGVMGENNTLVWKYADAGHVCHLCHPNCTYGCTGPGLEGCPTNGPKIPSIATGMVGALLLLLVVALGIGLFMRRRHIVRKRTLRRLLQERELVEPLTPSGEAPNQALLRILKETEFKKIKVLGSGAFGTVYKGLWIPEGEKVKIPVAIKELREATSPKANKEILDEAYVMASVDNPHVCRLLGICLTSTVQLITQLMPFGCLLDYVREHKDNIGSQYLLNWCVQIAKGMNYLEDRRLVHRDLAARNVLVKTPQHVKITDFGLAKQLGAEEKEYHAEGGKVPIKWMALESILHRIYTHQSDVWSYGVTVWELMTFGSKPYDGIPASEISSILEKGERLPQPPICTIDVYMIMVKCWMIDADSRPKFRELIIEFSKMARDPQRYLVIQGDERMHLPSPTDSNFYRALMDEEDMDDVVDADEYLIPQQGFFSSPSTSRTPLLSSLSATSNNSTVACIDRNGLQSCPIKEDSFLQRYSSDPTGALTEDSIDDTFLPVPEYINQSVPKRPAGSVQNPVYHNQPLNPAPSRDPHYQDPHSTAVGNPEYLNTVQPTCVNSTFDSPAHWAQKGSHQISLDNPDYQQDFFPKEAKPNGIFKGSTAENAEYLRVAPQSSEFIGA
row,IC50 [nM],Structure (SMILES)
1,4,O=C(Nc1cccc(Nc2cc(Nc3cccc(C(F)(F)F)c3)ncn2)c1)C1CC1
